Measured values reported in article PMC10014103, “The immunometabolite itaconate stimulates OXGR1 to promote mucociliary clearance during the pulmonary innate immune response” (The Journal of Clinical Investigation, 2023).

Legend:
human OXGR1 [1] = biological target: T1, human OXGR1 (Homo sapiens, UniProt Q96P68); test: Aequorin assay (calcium mobilization) in HEK293 cells overexpressing human OXGR1; format: cell-based; settings: for EC50: read-out: EC50
Description: Thirty-six hours after transfection, cells were maintained in serum-free medium for 12 hours and then loaded with 5 μM coelenterazine for 3 hours. Cells were trypsinized and resuspended at a density of 5 × 10^5 cells/mL in HBSS supplemented with 10 mM HEPES and 0.5% BSA. Cell suspensions of 100 μL were aliquoted into 96-well plates.

human OXGR1 [2] = biological target: T1, human OXGR1; test: Fluo-4 assay in HEK293 cells expressing human OXGR1; format: cell-based; settings: Fluo-4 assay, hOXGR1 in HEK293 cells; read-out: EC50
Description: For the Fluo-4AM assay, OXGR1-expressing cells were loaded with 2 μM Fluo-4AM for 30 minutes at 37°C. Excess Fluo-4AM was then washed off with HBSS buffer. After incubation at 37°C for another 10 minutes, cells were transferred onto a 96-well plate.

human GPCRs = biological target: T2, human GPCRs (Homo sapiens, UniProt Q96P68); test: Screen of 301 human GPCRs in transfected HEK293 cells (aequorin, Gα16 coexpression); format: cell-based; settings: 301 GPCRs, ligand final 0.625 mM; result for OXGR1
T2 construct: expressed in transfected cells; host or cells: HEK293
Source text: In our search for the function and mechanism of secreted ITA, we noted the signaling of the GPCR proteins SUCNR1/GPR91 and OXGR1/GPR99, which sense the TCA metabolites succinate and α-KG, which are structurally similar to ITA ([27]). To test the hypothesis that ITA may similarly signal through a GPCR, we performed a screening of human GPCRs in transfected HEK293 cells and measured GPCR-dependent calcium mobilization (Figure 1E and Supplemental Figure 1; supplemental material available online with this article; https://doi.org/10.1172/JCI160463DS1). In order to allow more GPCRs to couple with the calcium pathway, we optimized the screening system by inducing coexpression of the promiscuous Gq family α subunit Gα16 ([34]). We examined 301 GPCRs that cover more than 70% of the nonolfactory GPCRs encoded by the human genome ([35]).
For the aequorin assay, HEK293 cells were transfected with aequorin plasmids (Addgene no. 78734), Gα16 plasmid, and GPCR plasmids. Thirty-six hours after transfection, cells were maintained in serum-free medium for 12 hours and then loaded with 5 μM coelenterazine for 3 hours. […] Ligands (100 μL, diluted to 1.25 mM in HBSS buffer, with a final concentration of 0.625 mM) were injected into plates, and luminance was recorded for 30 seconds using the BioTek Synergy H1 plate reader.

FLAG-tagged OXGR1 [3] = biological target: T3, FLAG-tagged OXGR1 (Homo sapiens, UniProt Q96P68); test: Endocytosis assay of FLAG-tagged OXGR1 in HEK293 cells; format: cell-based; settings: WT OXGR1, within 10 minutes of ligand treatment
T3 construct: expressed in transfected cells
Description: (§1) For endocytosis assays, HEK293 cells stably expressing FLAG-OXGR1 were chilled on ice in DMEM medium supplemented with 30 mM HEPES for 10 minutes. […] Unbound antibody was then washed off with prechilled HBSS buffer. […] After ligand stimulation, cells were fixed and permeabilized. Subcellular localization of FLAG-tagged OXGR1 was detected using FITC-donkey anti-rabbit antibody (Invitrogen, Thermo Fisher Scientific), and nuclei were stained with DAPI (MilliporeSigma). Immunofluorescence images were captured with a Leica SP8 laser-scanning confocal microscope.

FLAG-tagged OXGR1 [4] = test: as above; format: cell-based, human; settings: after ITA treatment
Description: as §1

OXGR1 [5] = test: ERK phosphorylation by Western blotting in OXGR1-expressing HEK293 cells; format: cell-based, human; settings: 5 μM to 1 mM for 15 minutes
Description: HEK293 cells were transiently transfected with plasmids expressing empty vector or FLAG-tagged OXGR1 using PolyJet reagent. The medium was switched to serum-free DMEM 36 hours after transfection. After serum starvation for another 12 hours, cells were stimulated with the indicated ligand and lysed in Laemmli buffer. Protein lysate was separated on standard SDS-PAGE, transferred onto a PVDF membrane, and then subjected to immunoblotting with the following antibodies: anti–p-ERK (catalog 4370, Cell Signaling Technology); anti-Flag (catalog 14793, Cell Signaling Technology); anti-IRG1/anti-ACOD1 (catalog 19857, Cell Signaling Technology); anti-Myc (catalog 2278, Cell Signaling Technology); anti-ERK (catalog 67170-1-Ig, Proteintech); and anti-actin (catalog A00702, GenScript).

OXGR1 [6] = test: Cellular thermal shift assay of OXGR1; format: binding, human; settings: 1 mM ITA, 37 to 62 °C
Description: Supplementary Figure 4. ITA increases the thermostability of OXGR1
Cells expressing Myc-tagged BirA along with AviTag-tagged wildtype (A) or R110A mutant (B) OXGR1 were treated with 1 μM biotin for 16 hours in serum-free medium to biotinylate OXGR1 in native conformation. Cells were treated with or without 1mM ITA, lysed, and incubated under different temperatures (from 37 to 62℃) for 3 minutes.
Denatured protein was removed by centrifuge. Biotinylated OXGR1 was determined by Western blot and quantified. […]

[7] = ITA concentration in BAL after intranasal supplementation (LC-MS); format: in vivo; settings: mouse, bronchoalveolar lavage fluid (BAL), other: intranasal, 20 µL of saline containing 1 mM ITA; 0.5 hours after intranasal ITA supplementation
Description: The concentrations of urea in plasma and BAL were determined using a urea assay kit (Solarbio). For ITA determination, samples were extracted by 80% (vol/vol) chilled (–80°C) methanol and analyzed with an ultra-high-performance liquid chromatograph (Acquity UPLC I-Class, Waters) coupled to a triple quadrupole mass spectrometer (Xevo TQ-XS, Waters). For α-KG determination, samples were lyophilized and derived by methoxyamine (MilliporeSigma) and N-methyl-N-[tert-butyldimethylsilyl] trifluoroacetamide (MilliporeSigma) in pyridine (MilliporeSigma). The derivatized sample was injected into an Agilent 7890A-5975C GC-MS system with an HP-5MS column.
Supplementary Figure 8. ITA level is positively correlated with Mucin 5b or β-defensin 1 concentration in BAL from mice after P. aeruginosa infection
A. ITA concentration in BAL was determined by LC-MS after intranasal delivery of 20μL saline containing PAO1 and 1mM ITA (n=3-4).B-C. Comparison of Mucin 5b (B) and β-defensin1 (C) concentration in BAL of P. aeruginosainfected mice with indicated genotypes (n=4-10). Significance is determined by paired t-test. n.s., no significance. D-E. Correlation analysis of ITA concentration and Mucin 5b (D) or β-defensin1 concentration (E) in BAL ofP. aeruginosainfected WT mice. […]

Structure (SMILES): C=C(CC(=O)O)C(=O)O [ITA, itaconate]
- calcium response (agonist effect) (human OXGR1 [1]; HEK293 cells overexpressing human OXGR1, aequorin): stimulated the calcium response in a dose-dependent manner
- EC50 (human OXGR1 [1]; OXGR1, as stated in abstract): ~300 µM
- EC50 (human OXGR1 [1]; aequorin assay, hOXGR1 in HEK293 cells): 310 ± 45.2 µM
- EC50 (human OXGR1 [1]; human OXGR1, text summary of Figure 1F and Supplemental Figure 2 (aequorin and Fluo-4)): 200 to 300 µM
- EC50 (human OXGR1 [2]): 221 ± 107 µM
- calcium mobilization in GPCR screen (human GPCRs): the only receptor that showed robust and reproducible calcium mobilization
- endocytosis of OXGR1 (FLAG-tagged OXGR1 [3]): rapid endocytosis of OXGR1 was triggered
- endocytosis of R110A or R261A mutant OXGR1 (FLAG-tagged OXGR1 [4]): did not undergo endocytosis
- phosphorylation of ERK (OXGR1 [5]): dose-dependently induced
- thermal stability of WT OXGR1 (OXGR1 [6]): increased the thermal stability
- concentration at 0.5 h [7]: 200 to 300 nM
